Results from PMC314469, “Protein Interaction Networks by Proteome Peptide Scanning” (PLoS Biology, 2004).

Test system: Myo5 SH3 domain
Assay: SPOT analysis of cellulose-bound peptides (WISE), Myo5 SH3 domain (Dataset S4)
Type: binding, Saccharomyces cerevisiae
Conditions: for The normalized value in BLU units: Myo5 SH3 domain
[1] = SPOT analysis of membrane-synthesized peptides probed with Myo5 SH3 domain, normalized value
[2] = SPOT analysis of cellulose-bound peptides probed with Myo5 SH3 domain, normalized value
[3] = SPOT analysis of cellulose-bound 14-mer yeast proteome peptides, normalized value, mean where the peptide was synthesized more than once
[4] = SPOT analysis of membrane-bound peptides, normalized value (see methods)

GNNSRNIPPPPPPP
The normalized value in BLU units (SPOT analysis, Myo5 SH3) [1]: 10334.3 BLU

GPEFWISPDTPLKF
The normalized value in BLU units (SPOT analysis, Myo5 SH3) [2]: 87.4 BLU

GPIIHPGPEPPRYD
The normalized value in BLU units [3]: 205.1 BLU

GPLLLTVPELPEAD
The normalized value in BLU units [3]: 162.3 BLU

GPSQFAPPPPPPGV
The normalized value in BLU units [3]: 20435.9 BLU

GQIDRDKPSEPERT
The normalized value in BLU units (SPOT analysis, Myo5 SH3) [1]: 100.5 BLU

GQQKRFSPSLPSAV
The normalized value in BLU units [4]: 728.5 BLU

GRHLKNIPRIPIFC
The normalized value in BLU units (SPOT analysis, Myo5 SH3) [1]: 1042.1 BLU

GRSLRKRPTSPSIS
The normalized value in BLU units [4]: 819.6 BLU

GSLVKTKPTLPLTK
The normalized value in BLU units [4]: 421.7 BLU

GSQWKNHPDWPFWV
The normalized value in BLU units [4]: 108.4 BLU

GSYIKRTPKIPEKD
The normalized value in BLU units (SPOT analysis, Myo5 SH3) [1]: 206.2 BLU

GTGRRRSPSTPIMP
The normalized value in BLU units [4]: 921.0 BLU

GTRPKILPKIPTGA
The normalized value in BLU units (SPOT analysis, Myo5 SH3) [1]: 772.9 BLU

GTTNRGPPPLPPRA
The normalized value in BLU units (SPOT analysis, Myo5 SH3) [1]: 39858.8 BLU

GTVTKTAPSFPQSS
The normalized value in BLU units (SPOT analysis, Myo5 SH3) [1]: 261.1 BLU

GWEPFSLPKDPKVV
The normalized value in BLU units (SPOT analysis, Myo5 SH3) [2]: 75.9 BLU

GWPVYNYPMQPTTE
The normalized value in BLU units (SPOT analysis, Myo5 SH3) [2]: 167.9 BLU

GWSTYIPPFNPLEI
The normalized value in BLU units [3]: 113.7 BLU

GWVVYPPPPKPSYN
The normalized value in BLU units (SPOT analysis, Myo5 SH3) [2]: 452.7 BLU

GYDEKGNPIPPNNW
The normalized value in BLU units [3]: 96.0 BLU

GYNPKTVPFVPISG
The normalized value in BLU units [4]: 108.5 BLU

HAEAFEDPSIPRIS
The normalized value in BLU units [3]: 324.6 BLU

HATLYWAPVSPLKS
The normalized value in BLU units [3]: 151.3 BLU

HAVLLNPPVAPTAE
The normalized value in BLU units (SPOT analysis, Myo5 SH3) [2]: 227.5 BLU

HAWDMRSPHRPFYS
The normalized value in BLU units (SPOT analysis, Myo5 SH3) [2]: 822.1 BLU

HEASKCFPKAPQAS
The normalized value in BLU units [4]: 288.6 BLU

HEHNYAIPYTPATF
The normalized value in BLU units [3]: 129.1 BLU

HEKLYHNPSLPAQS
The normalized value in BLU units (SPOT analysis, Myo5 SH3) [2]: 78.1 BLU

HELVKSDPHFPYGT
The normalized value in BLU units [4]: 229.2 BLU

HEREKALPPIPFTT
The normalized value in BLU units (SPOT analysis, Myo5 SH3) [1]: 214.6 BLU

HEVPKRSPEKPSNP
The normalized value in BLU units [4]: 171.6 BLU

HEYNLALPKFPILF
The normalized value in BLU units [3]: 146.8 BLU

HFLAYTNPRAPGKL
The normalized value in BLU units (SPOT analysis, Myo5 SH3) [2]: 111.7 BLU

HFLCLDPPIDPNNL
The normalized value in BLU units [3]: 122.0 BLU

HFNDLQSPAQPQQS
The normalized value in BLU units (SPOT analysis, Myo5 SH3) [2]: 92.5 BLU

HFNTKKIPELPSQF
The normalized value in BLU units [4]: 466.9 BLU

HFPSRSQPSDPKLQ
The normalized value in BLU units (SPOT analysis, Myo5 SH3) [1]: 257.5 BLU

HFYEYVYPSLPFIE
The normalized value in BLU units (SPOT analysis, Myo5 SH3) [2]: 152.0 BLU

HICDKMNPASPQYF
The normalized value in BLU units [4]: 159.1 BLU

HILEKYSPFDPCGR
The normalized value in BLU units [4]: 166.2 BLU

HKFVKSSPVVPFDD
The normalized value in BLU units (SPOT analysis, Myo5 SH3) [1]: 150.9 BLU

HLARYIFPPNPVFH
The normalized value in BLU units (SPOT analysis, Myo5 SH3) [2]: 279.4 BLU

HLDSFSPPFSPSTT
The normalized value in BLU units [3]: 120.7 BLU

HLFHLTTPQDPRLL
The normalized value in BLU units [3]: 245.7 BLU

HLLGKEGPSAPNPS
The normalized value in BLU units [4]: 124.5 BLU

HLTDLSPPGTPPTM
The normalized value in BLU units (SPOT analysis, Myo5 SH3) [2]: 260.8 BLU

HLVRKVAPTKPMYC
The normalized value in BLU units (SPOT analysis, Myo5 SH3) [1]: 477.5 BLU

HLVVWNPPILPQHE
The normalized value in BLU units [3]: 117.9 BLU

HNAAKPIPHVPQAS
The normalized value in BLU units [3]: 62.3 BLU

HPEYLSLPFEPYCF
The normalized value in BLU units [3]: 212.9 BLU

HPHPHPHPHTPTHT
The normalized value in BLU units (SPOT analysis, Myo5 SH3) [2]: 238.0 BLU

HPIHLQPPVPPVYK
The normalized value in BLU units [3]: 317.7 BLU

HPSGLNSPKLPPLP
The normalized value in BLU units (SPOT analysis, Myo5 SH3) [2]: 456.8 BLU

HPYMMVYPMSPPPP
The normalized value in BLU units (SPOT analysis, Myo5 SH3) [2]: 562.8 BLU

HRLFKCTPGLPKLW
The normalized value in BLU units [4]: 266.0 BLU

HSTPKPLPPVPALS
The normalized value in BLU units (SPOT analysis, Myo5 SH3) [1]: 143.5 BLU

HTIPKSGPIVPYVL
The normalized value in BLU units (SPOT analysis, Myo5 SH3) [1]: 163.7 BLU

IAECLGVPWEPVDL
The normalized value in BLU units (SPOT analysis, Myo5 SH3) [2]: 142.9 BLU

IAEWKNDPNNPNFE
The normalized value in BLU units [4]: 91.1 BLU

IAGMLMVPESPRFL
The normalized value in BLU units [3]: 255.1 BLU

IAGQRTFPEDPNYP
The normalized value in BLU units (SPOT analysis, Myo5 SH3) [1]: 171.7 BLU

IAKLKRKPVVPRLK
The normalized value in BLU units [4]: 888.5 BLU

IAKPYVLPFFPLYA
The normalized value in BLU units [3]: 246.9 BLU

IARPLSVPGSPKVR
The normalized value in BLU units (SPOT analysis, Myo5 SH3) [2]: 382.9 BLU

IARSFTIPFLPKIP
The normalized value in BLU units (SPOT analysis, Myo5 SH3) [2]: 204.5 BLU

IATMYPIPAYPDLL
The normalized value in BLU units (SPOT analysis, Myo5 SH3) [2]: 96.9 BLU

IAVTRSIPRGPDKN
The normalized value in BLU units [4]: 157.9 BLU

IDIPRTNPHIPLYQ
The normalized value in BLU units [4]: 139.2 BLU

IDKSKLSPRFPELK
The normalized value in BLU units [4]: 233.0 BLU

IEEGHLDPEAPDKL
The normalized value in BLU units [3]: 84.8 BLU
